Measured values as given in patent US20100196282A1, “OPTICAL IMAGING AGENTS” (priority 2007, published 2010).
Where a SMILES comes first, the peptide text is derived from it. Bridges are numbered along the chain shown (N, C = ends). The star is where a group is joined. X8 = CC1=CC(C)(C)N(CCCS(=O)(=O)O)c2cc3c(cc21)/C(=C/C=C/C1=[N+](CCCS(=O)(=O)[O-])c2ccc(S(=O)(=O)O)cc2C1(C)CCCC(=O)*)C=C(C(C)(C)C)O3; X7 = CCN1c2cc3c(cc2C(C)=CC1(C)C)/C(=C/C=C/C1=[N+](CCCS(=O)(=O)[O-])c2ccc(S(=O)(=O)O)cc2C1(C)CCCC(=O)*)C=C(C(C)(C)C)O3; X2 = CCN1c2cc3c(cc2C(C)=CC1(C)C)/C(=C/C=C/C1=[N+](CCCCCC(=O)*)c2ccc(S(=O)(=O)[O-])cc2C1(C)C)C=C(C(C)(C)C)O3; X3 = CCN(CCCS(=O)(=O)O)c1ccc2c(c1)OC(C(C)(C)C)=C/C2=C\C=C\C1=[N+](CCCCCC(=O)*)c2ccc(S(=O)(=O)[O-])cc2C1(C)C; X9 = CCN(CC)c1ccc2c(c1)OC(C(C)(C)C)=C/C2=C\C=C\C1=[N+](CCCS(=O)(=O)[O-])c2ccc(S(=O)(=O)O)cc2C1(C)CCCC(=O)*

Experiments:
[1] = tested on: HT-29 human colon carcinoma tumour (c-Met expressing); assay: In vivo optical imaging of HT-29 tumour-bearing nude mice; set-up: species or system mouse; settings: HT-29 s.c. tumours in female BALB c/A nude mice, i.v., 635 nm excitation
Description: Female BALB c/A nude (Born) mice were used in the study. The use of the animals was approved by the local ethics committee. BALB c/A nude is an inbred immunocompromised mouse strain with a high take rate for human tumours as compared to other nude mice strains. The mice were 8 weeks old upon arrival and with a body weight of approx. 20 grams at the start of the study. The animals were housed in individually ventilated cages (IVC, Scanbur BK) with HEPA filtered air. The animals had ad libitum access to “Rat and Mouse nr. 3 Breeding” diet (Scanbur BK) and tap water acidified by addition of HCl to a molar concentration of 1 mM (pH 3.0).
The colon cancer cell HT-29 is derived from human colon carcinomas and is reported to express c-Met according to Zeng et al [Clin. Exp. Metastasis, 21, 409-417. (2004)]. The cell line was proven to be tumorigenic when inoculated subcutaneously into nude mice [Flatmark et al, Eur. J. Cancer 40, 1593-1598 (2004)].
HT-29 cells were grown in McCoy's 5a medium (Sigma #M8403) supplemented with 10% fetal bovine serum and penicillin/streptomycin. Stocks were made at passage number four (P4) and frozen down for storage in liquid nitrogen at 10^7 cells/vial in the respective culture media containing 5% DMSO. On the day of the transplantation, the cells were thawed quickly in 37° C. water bath (approx. 2 min), washed and resuspended in PBS/2% serum (centrifugation at 1200 rpm for 10 min). Thorough mixing of cells in the vials was ensured every time the cells were aspirated into the dosing syringe. A volume of 0.1 ml of cell suspension was injected s.c. at the shoulder and at the back using a fine bore needle (25 G). The animals were then returned to their cages and the tumours were allowed to grow for 13-17 days. The animals were allowed an acclimatisation period of at least 5 days before the inoculation procedure.
All test substances were reconstituted with PBS from freeze-dried powder. A small stack of white printer paper was imaged to obtain a flat field image which was used to correct for illumination inhomogeneities.
For immobilisation during the optical imaging procedure, the animals were anaesthetized in a coaxial open mask to light surgical level anaesthesia with Isoflurane (typically 1.3-2%), using oxygen as the carrier gas. A small piece of skin (3-5 mm) was removed over parts of the tumour and adjacent muscle using a surgical forceps and fine scissors while the animal was anaesthetized. This was done to measure the signal from tumour and muscle without interference from the overlying skin tissue. The wound was covered by applying a liquid, non-fluorescent bandage spray (3M, MN, USA).
The respiration and body temperature of the animal was monitored with a BioVet system (m2m Imaging Corp, NJ, USA) using a pneumatic sensor underneath the animal and a rectal temperature probe. The BioVet system also supplied external heating using a heating mat set to 40° C. to sustain normal body temperature for the duration of the imaging procedure (2 hours). A Venflon catheter was placed in the tail vein for contrast agent administration. Each animal was given one contrast agent injection. The injected volume was 0.1 ml of test compound followed immediately by a 0.2 ml saline flush. Fluorescence images were acquired just prior to injection and then every 30 seconds for 2 hours.
Imaging was performed through a clinical laparoscope adapted to use a light source to excite the reporter and a filtering system to extract the fluorescence component. […]

[2] = target: T1, human c-Met/Fc chimera (Homo sapiens, UniProt P08581); assay: Fluorescence polarisation assay, affinity binding to cMet; settings: 5 nM dye-labelled peptide, c-Met/Fc 0-250 nM, 10 min at 30° C., one-site binding
T1 construct: Fc (immunoglobulin Fc fusion partner); purchased R&D Systems
T1 sequence (P08581 with tags, fused parts or gaps limits assumed): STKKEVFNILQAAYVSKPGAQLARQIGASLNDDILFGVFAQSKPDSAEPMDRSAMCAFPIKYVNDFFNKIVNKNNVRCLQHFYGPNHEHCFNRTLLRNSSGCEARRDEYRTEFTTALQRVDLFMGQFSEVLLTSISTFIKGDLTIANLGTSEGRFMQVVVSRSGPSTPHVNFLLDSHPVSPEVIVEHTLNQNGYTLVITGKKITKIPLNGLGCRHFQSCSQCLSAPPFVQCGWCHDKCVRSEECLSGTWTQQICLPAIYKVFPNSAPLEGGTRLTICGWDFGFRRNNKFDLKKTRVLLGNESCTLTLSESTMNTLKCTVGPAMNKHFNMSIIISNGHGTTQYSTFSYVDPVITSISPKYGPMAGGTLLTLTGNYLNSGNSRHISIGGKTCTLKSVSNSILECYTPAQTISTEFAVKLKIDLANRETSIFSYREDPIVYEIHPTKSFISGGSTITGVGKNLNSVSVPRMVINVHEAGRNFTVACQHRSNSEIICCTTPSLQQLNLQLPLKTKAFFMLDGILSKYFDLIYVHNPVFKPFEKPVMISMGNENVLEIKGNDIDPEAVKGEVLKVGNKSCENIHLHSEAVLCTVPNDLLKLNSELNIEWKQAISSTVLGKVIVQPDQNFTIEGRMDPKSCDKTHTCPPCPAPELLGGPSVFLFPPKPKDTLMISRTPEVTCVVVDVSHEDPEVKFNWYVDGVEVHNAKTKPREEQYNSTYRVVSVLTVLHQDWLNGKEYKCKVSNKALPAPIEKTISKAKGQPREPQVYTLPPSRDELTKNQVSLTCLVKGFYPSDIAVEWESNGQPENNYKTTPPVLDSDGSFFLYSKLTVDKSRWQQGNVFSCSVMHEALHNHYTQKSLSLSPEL
T1 sequence (P08581 25-307 limits assumed, change not shown): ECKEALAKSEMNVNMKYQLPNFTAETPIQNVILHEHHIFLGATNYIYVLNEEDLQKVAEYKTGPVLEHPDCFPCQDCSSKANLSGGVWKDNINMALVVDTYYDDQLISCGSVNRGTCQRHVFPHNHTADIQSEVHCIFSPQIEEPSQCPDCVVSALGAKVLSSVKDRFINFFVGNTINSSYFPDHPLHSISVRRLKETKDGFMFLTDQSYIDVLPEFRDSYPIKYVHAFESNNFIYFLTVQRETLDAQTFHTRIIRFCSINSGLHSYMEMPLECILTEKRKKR
Experimental: Monochromatic light passes through a […] polarizing filter and excites fluorescent molecules in the sample. Only those molecules that oriented properly in the vertically polarized plane adsorb light, become excited, and subsequently emit light. The emitted light is measured in both horizontal and vertical planes. The anisotropy value (A), is the ratio between the light intensities following the equation
The fluorescence anisotropy measurements were performed in 384-well microplates in a volume of 10 μL in binding buffer (PBS, 0.01% Tween-20, pH 7.5) using a Tecan Safire fluorescence polarisation plate reader (Tecan, US) at Ex 635/Em 678 nm. The concentration of dye-labelled peptide was held constant (5 nM) and the concentration of the human c-Met/Fc chimera (R&D Systems) was varied from 0-250 nM. Binding mixtures were equilibrated in the microplate for 10 min at 30° C. The observed change in anisotropy was fitted to the equation: […]
where robs is the observed anisotropy, rfree is the anisotropy of the free peptide, rbound is the anisotropy of the bound peptide, Kd is the dissociation constant, cMet is the total c-Met concentration, and P is the total dye-labelled peptide concentration. The equation assumes that the synthetic peptide and the receptor form a reversible complex in solution with 1:1 stoichiometry. Data fitting was done via nonlinear regression using SigmaPlot software to obtain the Kd value (one-site binding).
Compounds 1 to 6 were tested for binding towards human c-Met (Fc chimera).

[3] = target: T2, human serum albumin (Homo sapiens, UniProt P02768); assay: in vitro
T2 sequence (P02768 25-609): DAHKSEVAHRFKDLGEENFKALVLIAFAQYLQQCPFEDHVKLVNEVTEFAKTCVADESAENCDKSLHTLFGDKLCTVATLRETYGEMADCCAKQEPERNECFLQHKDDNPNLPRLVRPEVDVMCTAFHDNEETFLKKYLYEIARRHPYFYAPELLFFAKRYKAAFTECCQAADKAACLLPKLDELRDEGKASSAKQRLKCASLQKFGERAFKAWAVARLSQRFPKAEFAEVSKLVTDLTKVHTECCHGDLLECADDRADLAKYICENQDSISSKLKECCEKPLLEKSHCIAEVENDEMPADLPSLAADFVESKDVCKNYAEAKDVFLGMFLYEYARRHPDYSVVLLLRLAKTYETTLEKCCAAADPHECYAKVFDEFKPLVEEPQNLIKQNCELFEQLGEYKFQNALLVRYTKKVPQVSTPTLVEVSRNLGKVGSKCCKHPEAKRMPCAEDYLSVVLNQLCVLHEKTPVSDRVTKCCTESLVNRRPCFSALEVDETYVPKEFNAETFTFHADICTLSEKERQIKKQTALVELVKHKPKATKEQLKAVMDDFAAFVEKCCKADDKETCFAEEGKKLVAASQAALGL
Description: Fluorescence polarisation assay was used to examine the affinity binding of the imaging agent towards the cMet target as well as the binding properties related to plasma proteins. The principle of the fluorescence polarisation method can briefly be described as follows:
(§1) The change of the polarization value was used to assess the binding of the Compound to human serum albumin as a low change of polarisation value is associated to low binding being appropriate for in-vivo use.

[4] = in vitro; settings: mouse, plasma
Description: as §1

[5] = target: T2, human serum albumin

| SMILES | Average tumour:muscle ratio (2 hours p.i.) [1] | Kd [2] | fraction unbound [3] | remaining at 2 h [4] | Binding human serum albumin (Biacore) [5] |
| --- | --- | --- | --- | --- | --- |
| CCN(CC)c1ccc2c(c1)OC(C(C)(C)C)=C/C2=C\C=C\C1=[N+](CCCS(=O)(=O)[O-])c2ccc(S(=O)(=O)O)cc2C1(C)CCCC(=O)NCCCC[C@H](NC(=O)CNC(=O)CNC(=O)CNC(=O)[C@@H](NC(=O)CNC(=O)[C@H](CCC(=O)O)NC(=O)[C@@H](NC(=O)[C@H](CCC(=O)O)NC(=O)[C@H](Cc1ccc(O)cc1)NC(=O)[C@@H]1CSSC[C@H](NC(=O)[C@H](CO)NC(=O)CNC(=O)[C@H](C)NC(C)=O)C(=O)N[C@@H](Cc2ccc(O)cc2)C(=O)N[C@H]2CSSC[C@H](NC(=O)[C@H](CCC(=O)O)NC(=O)[C@H](Cc3ccccc3)NC(=O)[C@H](CCCNC(=N)N)NC(=O)[C@@H]3CCCN3C(=O)[C@@H]3CCCN3C(=O)CNC(=O)[C@H](CO)NC2=O)C(=O)N[C@@H](Cc2c[nH]c3ccccc23)C(=O)N1)[C@@H](C)O)[C@@H](C)O)C(N)=O (stereo partly shown) [Compound 2] (Ac-AGSCYCSGPPRFECWCYETEGTGGGK(X9)-NH2; disulfide 4-16, 6-14) | 2.40 | – | – | – | – |
| CCN(CCCS(=O)(=O)O)c1ccc2c(c1)OC(C(C)(C)C)=C/C2=C\C=C\C1=[N+](CCCCCC(=O)NCCCC[C@H](NC(=O)CNC(=O)CNC(=O)CNC(=O)[C@@H](NC(=O)CNC(=O)[C@H](CCC(=O)O)NC(=O)[C@@H](NC(=O)[C@H](CCC(=O)O)NC(=O)[C@H](Cc2ccc(O)cc2)NC(=O)[C@@H]2CSSC[C@H](NC(=O)[C@H](CO)NC(=O)CNC(=O)[C@H](C)NC(C)=O)C(=O)N[C@@H](Cc3ccc(O)cc3)C(=O)N[C@H]3CSSC[C@H](NC(=O)[C@H](CCC(=O)O)NC(=O)[C@H](Cc4ccccc4)NC(=O)[C@H](CCCNC(=N)N)NC(=O)[C@@H]4CCCN4C(=O)[C@@H]4CCCN4C(=O)CNC(=O)[C@H](CO)NC3=O)C(=O)N[C@@H](Cc3c[nH]c4ccccc34)C(=O)N2)[C@@H](C)O)[C@@H](C)O)C(N)=O)c2ccc(S(=O)(=O)[O-])cc2C1(C)C [Compound 3] (Ac-AGSCYCSGPPRFECWCYETEGTGGGK(X3)-NH2; disulfide 4-16, 6-14) | 1.67 | 0.5 nM | 0.73 | > 95% | Low |
| CCN1c2cc3c(cc2C(C)=CC1(C)C)/C(=C/C=C/C1=[N+](CCCCCC(=O)NCCCC[C@H](NC(=O)CNC(=O)CNC(=O)CNC(=O)[C@@H](NC(=O)CNC(=O)[C@H](CCC(=O)O)NC(=O)[C@@H](NC(=O)[C@H](CCC(=O)O)NC(=O)[C@H](Cc2ccc(O)cc2)NC(=O)[C@@H]2CSSC[C@H](NC(=O)[C@H](CO)NC(=O)CNC(=O)[C@H](C)NC(C)=O)C(=O)N[C@@H](Cc4ccc(O)cc4)C(=O)N[C@H]4CSSC[C@H](NC(=O)[C@H](CCC(=O)O)NC(=O)[C@H](Cc5ccccc5)NC(=O)[C@H](CCCNC(=N)N)NC(=O)[C@@H]5CCCN5C(=O)[C@@H]5CCCN5C(=O)CNC(=O)[C@H](CO)NC4=O)C(=O)N[C@@H](Cc4c[nH]c5ccccc45)C(=O)N2)[C@@H](C)O)[C@@H](C)O)C(N)=O)c2ccc(S(=O)(=O)[O-])cc2C1(C)C)C=C(C(C)(C)C)O3 [Compound 4] (Ac-AGSCYCSGPPRFECWCYETEGTGGGK(X2)-NH2; disulfide 4-16, 6-14) | 1.52 | 3.2 nM | 0.45 | > 95% | Very high |
| CCN1c2cc3c(cc2C(C)=CC1(C)C)/C(=C/C=C/C1=[N+](CCCS(=O)(=O)[O-])c2ccc(S(=O)(=O)O)cc2C1(C)CCCC(=O)NCCCC[C@H](NC(=O)CNC(=O)CNC(=O)CNC(=O)[C@@H](NC(=O)CNC(=O)[C@H](CCC(=O)O)NC(=O)[C@@H](NC(=O)[C@H](CCC(=O)O)NC(=O)[C@H](Cc1ccc(O)cc1)NC(=O)[C@@H]1CSSC[C@H](NC(=O)[C@H](CO)NC(=O)CNC(=O)[C@H](C)NC(C)=O)C(=O)N[C@@H](Cc2ccc(O)cc2)C(=O)N[C@H]2CSSC[C@H](NC(=O)[C@H](CCC(=O)O)NC(=O)[C@H](Cc4ccccc4)NC(=O)[C@H](CCCNC(=N)N)NC(=O)[C@@H]4CCCN4C(=O)[C@@H]4CCCN4C(=O)CNC(=O)[C@H](CO)NC2=O)C(=O)N[C@@H](Cc2c[nH]c4ccccc24)C(=O)N1)[C@@H](C)O)[C@@H](C)O)C(N)=O)C=C(C(C)(C)C)O3 (stereo partly shown) [Compound 5] (Ac-AGSCYCSGPPRFECWCYETEGTGGGK(X7)-NH2; disulfide 4-16, 6-14) | 1.22 | – | – | – | – |
| CC(=O)N[C@@H](C)C(=O)NCC(=O)N[C@@H](CO)C(=O)N[C@H]1CSSC[C@@H](C(=O)N[C@@H](Cc2ccc(O)cc2)C(=O)N[C@@H](CCC(=O)O)C(=O)N[C@H](C(=O)N[C@@H](CCC(=O)O)C(=O)NCC(=O)N[C@H](C(=O)NCC(=O)NCC(=O)NCC(=O)N[C@@H](CCCCNC(=O)CCCC2(C)C(/C=C/C=C3\C=C(C(C)(C)C)Oc4cc5c(cc43)C(C)=CC(C)(C)N5CCCS(=O)(=O)O)=[N+](CCCS(=O)(=O)[O-])c3ccc(S(=O)(=O)O)cc32)C(N)=O)[C@@H](C)O)[C@@H](C)O)NC(=O)[C@H](Cc2c[nH]c3ccccc23)NC(=O)[C@@H]2CSSC[C@H](NC(=O)[C@H](Cc3ccc(O)cc3)NC1=O)C(=O)N[C@@H](CO)C(=O)NCC(=O)N1CCC[C@H]1C(=O)N1CCC[C@H]1C(=O)N[C@@H](CCCNC(=N)N)C(=O)N[C@@H](Cc1ccccc1)C(=O)N[C@@H](CCC(=O)O)C(=O)N2 (stereo partly shown) [Compound 6] (Ac-AGSCYCSGPPRFECWCYETEGTGGGK(X8)-NH2; disulfide 4-16, 6-14) | 1.57 | – | – | – | – |
